# Test results reported in PubChem BioAssay AID1902 (Broad Institute, 2009).
# Calls of active or inactive are those of the source.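 The calls were made as follows: active = EC50 no more than a set limit of log units above the highest dose; inactive = the rest.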
# Biological target: S. pyogenes SKKanGAS, kanamycin survival, BacTiterGlo, 6 h
# Test: SKKanGAS survival reduction under kanamycin, dose response, streptokinase promoter inhibitor project, SKKanGAS strain, luminescence, dose confirmation (AID 1902);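 also: lower survival reflects blocked streptokinase promoter driving kanamycin resistance gene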
row,SMILES,EC50
1,CN(CC1CCCO1)S(=O)(=O)c1ccc(C(=O)Nc2ccc(F)cc2)cc1 (stereo not drawn),> 15 µM (inactive)
2,CCCc1ccc(-c2cc(N)n[nH]2)cc1,4.89 µM
3,C=CCc1cc(/C=C2/NC(=O)N(CC)C2=O)cc(OCC)c1OCc1ccc(C(=O)O)cc1,11.9 µM
4,CC(C)Cn1c(N)c(C(=O)NCc2cccs2)c2nc3ccccc3nc21,5.37 µM
5,CCOC(=O)c1csc(NC(=O)c2ccc3c(c2)OCCO3)n1,> 15 µM (inactive)
6,Cc1nn(-c2ccccc2)c(C)c1/C=N/NC(=O)c1cc(-c2cccc3ccccc23)n[nH]1,6.54 µM
7,O=c1/c(=C\c2cccc(O)c2)sc2nc(-c3ccccc3)c(-c3ccccc3)n12,7.63 µM
8,Cc1ccc(C(=O)NNC2=Nc3cccc4cccc2c34)cc1,3.14 µM
9,CC1CC(=O)c2c(cc3c(-c4c(O)cc(O)c5c(O)c6c(cc45)OC(C)CC6=O)c(O)cc(O)c3c2O)O1 (stereo not drawn),0.501 µM
10,Cc1cccc(C(=O)OCC(=O)Nc2nnc(-c3ccccc3)o2)c1O,2.2 µM
11,CC/C(=C\C=C\[C@@H]1C=C[C@@H]2CCC[C@H]2[C@@H]1C(=O)c1ccc[nH]1)[C@@H]1O[C@@H]([C@@H](C)C(=O)O)CC[C@@H]1C,0.127 µM
12,Fc1cccc2sc(Nc3nnc(-c4ccco4)o3)nc12,0.307 µM
13,CCCCCCCCCCCCCCCC(O)C(N)CO (stereo not drawn),2.2 µM
14,COc1cc(/C=C/C(=O)c2ccc([N+](=O)[O-])o2)ccc1O,2.98 µM
15,CC(C)Cn1c2c(c(O)c(C(=O)Nc3ncccc3O)c1=O)CCCC2,2.35 µM
16,Cc1ccc(N(C)S(=O)(=O)c2cccc(C(=O)Nc3nc4ccccc4[nH]3)c2)cc1,1 µM
17,Cc1ccc(Oc2nc(-c3ccccn3)nc3ccccc23)cc1,< 0.06 µM
18,Cc1ccc(C)c(-c2csc(N)c2C(=O)OC(C)C)c1,3.11 µM
19,N#CCC(=O)Nc1ccc(C(=O)OC(C(=O)Nc2cc(C(F)(F)F)ccc2Cl)c2ccccc2)cc1 (stereo not drawn),3.64 µM
20,O=C(N/N=C/c1cc(O)ccc1Br)c1cccnc1,2.88 µM
21,C=CCn1c(O)c(C(CC)=Nc2ccc(N(CC)CC)cc2)c(=O)[nH]c1=O,1.66 µM
22,Cc1ccc(Cn2c(Cc3ccccc3)nc3ccccc32)cc1,14.2 µM
23,COc1ccccc1-c1nnc(NC(=O)c2ccc(S(=O)(=O)N(C)CC3CCCO3)cc2)o1 (stereo not drawn),8.41 µM
24,CCc1ccc(/C=C/C(=O)c2cc(Br)ccc(=O)c2O)cc1,0.417 µM
25,CC(C)(C)c1nc(NC(=O)Nc2ccccc2)sc1Br,6.3 µM
26,CCCCCCCOC(=O)C[N+](C)(C)CCOC1CC2CCC1(C)C2(C)C (stereo not drawn),4.52 µM
27,Cc1cc(Cl)c2oc(C(=O)N3CCN(C(=O)c4ccco4)CC3)c(C)c2c1,4.45 µM

row,SMILES,EC50
1,O=C(Nc1cc([N+](=O)[O-])ccc1O)c1cccc(NC(=O)c2ccco2)c1,2.78 µM
2,O=C(NCC1(N2CCCCC2)CCCCC1)c1cccc(NS(=O)(=O)c2ccccc2)c1,> 15 µM (inactive)
3,Clc1ccc(N2COC3c4cccc5cccc(c45)C32)cc1 (stereo not drawn),7.55 µM
4,COc1cccc(C(=O)OCC(=O)Nc2nnc(-c3ccccc3)o2)c1,8.68 µM
5,COc1ccc(C(=O)NNC(=S)NC(=O)c2ccc(F)cc2)cc1Br,0.127 µM
6,COc1ccc(OC)c(N=Cc2c(O)n(Cc3ccccc3)c(=S)[nH]c2=O)c1,> 15 µM (inactive)
7,O=C(Cc1ccccc1)NNC(=S)NC(=O)c1cccs1,3.83 µM
8,O=C(NNC(=S)NC(=O)c1ccc(Br)cc1)c1cccc([N+](=O)[O-])c1,0.892 µM
9,O=C(COc1ccccc1)NC1C(=O)N2C(C(=O)O)=C(Cl)CSC12 (stereo not drawn),0.128 µM
10,CCN(CC)S(=O)(=O)c1ccc(N2CCOCC2)c(NC(=O)C2CSC3(C)CCC(=O)N23)c1 (stereo not drawn),> 15 µM (inactive)
11,CC(C)CN(Cc1cc(=O)oc2cc(-c3ccccc3)c(O)cc12)CC(C)C,3.88 µM
12,CC(C)C[C@H](NC(=O)c1nc[nH]c1C(=O)N1CCc2ccccc2C1)C(=O)OCc1ccccc1,9.87 µM
13,O=C(Oc1ccc(NC2=C(Cl)C(=O)c3ccccc3C2=O)cc1)c1ccc([N+](=O)[O-])cc1,7.48 µM
14,O=C(Nc1ccc(F)c(Cl)c1)Nc1csc2ccccc12,2.79 µM
15,NC(=S)N=Nc1ccc(NN=C(N)N)cc1,< 0.06 µM
16,O=C(Nc1cccc(NC(=O)c2ccccc2Cl)c1)c1ccc([N+](=O)[O-])o1,4.81 µM
17,CN=C1S/C(=C\c2ccc(N3CCOCC3)c(F)c2)C(=O)N1C,4.94 µM
18,CCC(=O)Nc1nc2ccccc2n1Cc1ccccc1Cl,8.22 µM
19,COc1ccc(/C=C/C(=O)NC(=S)NNC(=O)c2cc(OC)c(OC)c(OC)c2)cc1,1.08 µM
20,COc1ccc(C(=O)Nc2nnc(-c3ccccc3)o2)cc1OC,5.56 µM
21,Clc1ccc(-c2cc3ccccc3nc2N2CCCC2)cc1,5.14 µM
22,CC(C)(C)c1ccc(C(=O)Nc2nnc(C3=COCCO3)o2)cc1,0.446 µM
23,Cc1cccc(C(=O)NC(=S)NNC(=O)c2ccc(Cl)cc2)c1,0.187 µM
24,CC1=C/C(=N\NC(=S)NCCc2ccccc2)CC(C)(C)C1,2.58 µM
25,CCC1(C)Cc2ccccc2-c2nc(-c3ccccc3)oc(=O)c21 (stereo not drawn),5.51 µM
26,N#Cc1ccc(-c2ccccc2)nc1SCC(=O)c1cc2ccccc2oc1=O,0.596 µM
